Results on one compound are retold here after article PMC12881674, “Activation of TRPV3 channels in bladder cancer cells stimulates ATP release” (Molecular Pharmacology, 2025).

The assay addresses T1, human TRPV3 (Homo sapiens, UniProt Q8NET8).
T1 construct: host or cells: HEK293
T1 sequence (Q8NET8 1-790): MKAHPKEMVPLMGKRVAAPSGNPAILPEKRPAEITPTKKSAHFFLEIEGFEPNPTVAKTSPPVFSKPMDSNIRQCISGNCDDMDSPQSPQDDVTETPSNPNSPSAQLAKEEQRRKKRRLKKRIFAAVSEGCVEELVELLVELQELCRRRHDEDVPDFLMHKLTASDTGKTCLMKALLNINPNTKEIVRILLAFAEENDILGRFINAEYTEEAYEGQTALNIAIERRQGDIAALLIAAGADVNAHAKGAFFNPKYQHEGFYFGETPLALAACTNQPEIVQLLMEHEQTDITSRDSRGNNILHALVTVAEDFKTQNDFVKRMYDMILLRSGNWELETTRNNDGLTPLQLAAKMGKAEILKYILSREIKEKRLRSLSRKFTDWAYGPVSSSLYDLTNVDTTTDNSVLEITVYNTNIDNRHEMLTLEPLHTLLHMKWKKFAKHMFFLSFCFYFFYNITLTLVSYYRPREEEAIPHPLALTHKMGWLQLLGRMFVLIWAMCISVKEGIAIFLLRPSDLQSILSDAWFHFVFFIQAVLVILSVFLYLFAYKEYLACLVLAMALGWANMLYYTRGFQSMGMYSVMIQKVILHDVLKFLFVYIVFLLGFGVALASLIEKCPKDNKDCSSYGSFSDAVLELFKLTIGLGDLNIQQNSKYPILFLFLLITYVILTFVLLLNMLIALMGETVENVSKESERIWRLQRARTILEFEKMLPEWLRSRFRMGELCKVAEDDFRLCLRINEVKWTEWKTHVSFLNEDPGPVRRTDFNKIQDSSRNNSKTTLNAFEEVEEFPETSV
In words: fluo-4 fluorometric Ca2+ assay, concentration-response, HEK cells expressing human TRPV3. The note with it: HEK cells expressing human TRPV3, fluo-4, room temperature, mean ± SD back-transformed from log space, n=5; read-out: EC50 for human TRPV3 activation. In kind it is cell-based. The source says:
KU-19-19 (DSMZ no. ACC 395), CAL-29 (DSMZ no. ACC 515), 647-V (DSMZ no. ACC 414), RT-4 (DSMZ no. ACC 412), and RT-112 (DSMZ no. ACC 418) bladder cancer cell lines were obtained from the Leibniz Institute DSMZ (German Collection of Microorganisms and Cell Cultures). Human TRPV3 (NM_145068, purchased from OriGene) and mouse TRPV3 (NM_001371006), rat TRPV1, mouse TRPV2, mouse TRPV4, human TRPM2, human TRPM8, and human TRPA1 were stably transfected in HEK293 cells as described before.[27] […]
All fluorometric Ca^2+ assays were performed in HBS buffer at room temperature. […] For the primary compound screening and the generation of concentration-response analyses, a robotic liquid handling station (Freedom Evo 150; Tecan) with a built-in custom-made fluorescence plate imager was used. […] Fluorescence was excited using a 470-nm light-emitting diode, and emitted light was imaged through a 515-nm–long pass filter with a cooled Zyla 5.5 camera (Andor). Fluorescence was recorded and processed under the control of the μ-Manager 2.0 gamma software (https://micro-manager.org.[28]). After recording baseline fluorescence, compounds were dispensed into the wells via the liquid handling device. […] For further analysis, fluorescence signals were calculated for each well, corrected for background intensities and normalized to the initial signals. […]

Broadly, the EC50 is the concentration that produces a half-maximal response. Take `COC(=O)C12CN(Cc3ccccc3)CC1(C(=O)OC)CN(Cc1ccccc1)C2` (stereo not shown) [AV3-1]: the EC50 came to 7.2 ± 1.4 µM.
